The results in this text go back to patent publication EP0656355A1, “BIPHENYLMETHANE DERIVATIVE AND MEDICINE CONTAINING THE SAME” (WAKUNAGA SEIYAKU KABUSHIKI KAISHA, priority 1992, dated 1994).

For assay [1], the system named is renal hypertensive rats. As to the kind of experiment: Antihypertensive action on renal hypertensive rats (invasive). The assay is classed as in vivo, male SD rat. Particulars: decreased rate of mean blood pressure; orally administered at 3 mg/kg; femoral artery cannula. An excerpt:
(4) Antihypertensive action on renal hypertensive rats (invasive)
Renal hypertensive rats were each prepared by constricting the left renal artery of a male SD rat (age: 6 weeks old, body weight: 190-220 g) with a silver clip (inner diameter: 0.017 inch) under anesthesia. Antihypertensive action was studied employing the rats whose mean blood pressure arose to 150 mmHg or higher in 4-8 weeks after the constriction of the renal artery. On the day before the test, a cannula for measure of blood pressure was inserted into the femoral artery of each of the renal hypertensive rats under anesthesia and was allowed to remain in the artery. The rats were maintained on food and water ad libitum until immediately before the test was started. The cannula so inserted was connected to a blood pressure transducer and mean blood pressure was recorded on a polygraph. After the blood pressure became stable, the test compound which was suspended in 0.5% carboxymethyl cellulose was orally administered to each of the rats at 3 mg/kg. In accordance with the following equation, a decreased rate of blood pressure (%) was calculated from the blood pressure values before and after the administration of the test compound. [formula]

For assay [2], the target named is T1, angiotensin II (AII) receptor (Rattus norvegicus, UniProt P25095).
T1 construct: Vascular smooth muscle cells, which had been separated from the aorta of a male Wistar rat and cultured on a 24-well multiplate; endogenous in cells; host or cells: primary cultured vascular smooth muscle cells from the aorta of a male Wistar rat
T1 sequence (P25095 1-359): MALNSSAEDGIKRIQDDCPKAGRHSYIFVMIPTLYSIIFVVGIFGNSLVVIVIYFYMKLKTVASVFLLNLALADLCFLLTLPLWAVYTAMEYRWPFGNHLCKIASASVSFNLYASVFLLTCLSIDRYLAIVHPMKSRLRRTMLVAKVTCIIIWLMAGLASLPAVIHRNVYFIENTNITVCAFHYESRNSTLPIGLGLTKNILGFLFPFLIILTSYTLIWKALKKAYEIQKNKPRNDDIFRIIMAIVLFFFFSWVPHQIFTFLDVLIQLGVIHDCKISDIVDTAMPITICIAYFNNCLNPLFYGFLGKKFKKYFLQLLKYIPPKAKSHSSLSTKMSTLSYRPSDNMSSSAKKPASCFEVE
As to the kind of experiment: Inhibitory action against the binding with angiotensin II (AII) receptor, 125I-AII competition on cultured rat aortic smooth muscle cells. Further details: species or system male Wistar rat. To be noted: 50% substitution of ¹²⁵I-AII specific binding; ¹²⁵I-AII 2 x 10⁻¹⁰M; one hour at room temperature; rat vascular smooth muscle cells; read-out: IC₅₀. The protocol: (1) Inhibitory action against the binding with angiotensin II (AII) receptor, using cultured rat aortic smooth muscle cells The present test was conducted in accordance with the method reported by Chiu et al. in European Journal of Pharmacology, 157, 13-21(1988), though after some modifications. […] To each well, ¹²⁵I-AII (final concentration: 2 x 10⁻¹⁰M) was added together with or without a test compound to give a total volume of 0.2 mℓ. Then the wells were incubated for one hour at room temperature to make the ¹²⁵I-AII and the test compound competitively bind to the vascular smooth muscle cells. Each well was thereafter washed with an ice-cold buffer three times to remove unbound ¹²⁵I-AII. To the cells, 0.2 mℓ of a 1 mol/ℓ solution of sodium hydroxide was added to solubilize the bound ¹²⁵I-AII. A bound amount of ¹²⁵I-AII contained in the resulting cell solution was measured by a gamma counter. The above test was conducted for each compound at different concentrations of 3 doses or more. The inhibition rate against the specific binding with ¹²⁵I-AII at each concentration was calculated in accordance with an equation to be set out subsequently herein.

In assay [3] the test system is angiotensin II contraction in longitudinal ileac muscles. As to the kind of experiment: Inhibitory activity to angiotensin II contraction in longitudinal ileac muscles excised from a guinea pig. The assay is classed as cell-based, Hartley male guinea pig. Particulars: Cavia porcellus, 20 min; 50% contraction inhibition concentration; 10⁻⁸M angiotensin II; test compound reacted for 20 minutes; guinea pig ileum longitudinal muscle; read-out: IC₅₀. The protocol:
(2) Inhibitory activity to angiotensin II contraction in longitudinal ileac muscles excised from a guinea pig
A Hartley male guinea pig (350-450 g in weight) was sacrificed under exsanguination, followed by the excision of its ileum.
A longitudinal muscle tissue (2 cm long) was prepared from the ileum in a manner known per se in the art. The sample was suspended in a 20-mℓ Magnus cylinder filled with a Tylode solution [composition (mM): NaCℓ 137, KCℓ 2.7, CaCℓ₂ 1.88, MgCℓ₂ 1.1, NaH₂PO₄ 0.4, NaH₂CO₃ 11.8 and glucose 5.6). The Tylode solution was incubated at 37°C and saturated with a mixed gas consisting of 95% O₂ + 5% CO₂. Using an isometric transducer ("TB-611T", manufactured by Nihon Kohden Corporation), variations in contraction were measured. The measurement results were recorded on a computer ("PC-9801", manufactured by NEC Corporation).
Under a load of 0.5 g initial tension, the longitudinal muscle sample was equilibrated in a nutrient solution for about one hour while being washed therewith at intervals of 15 minutes. Then, contracture by the administration of 80 mM of KCℓ was repeated twice. After conforming that the contraction occurred stably, the following test was conducted.
First, 10^-8M angiotensin II was administered to the sample and its maximum contraction was recorded. The test compound was then administered to the sample and they were reacted for 20 minutes. Administered again was 10⁻⁸M angiotensin II and the maximum contraction was measured. […] This test was repeated at increased concentrations of the test compound. A 50% contraction inhibition concentration (IC₅₀) was determined in accordance with a linear regressive calculation of the contraction inhibition rates.

For assay [4], the system named is renal hypertensive rats. The experiment in a line: Antihypertensive action on renal hypertensive rats (non-invasive). The class given is in vivo, male SD rat. Particulars: decreased rate of systolic blood pressure; orally administered at 10 mg/kg; non-invasive sphygmomanometer. The text has this: (3) Antihypertensive action on renal hypertensive rats (non-invasive)
Renal hypertensive rats were each prepared by constricting the left renal artery of a male SD rat (age: 6 weeks old, body weight: 200-220 g) with a silver clip (inner diameter: 0.017 inch) under anesthesia. The rats whose systolic blood pressure arose to 160 mmHg or higher in 4-8 weeks after the constriction of the renal artery were used for the test. The rats were maintained on food and water ad libitum until immediately before the test was started. Each test compound which was suspended in 0.5% methyl cellulose was orally administered at 10 mg/kg. After the administration of the test compound, the systolic blood pressure was measured periodically by a non-invasive sphygmomanometer ("BP-98", manufactured by SOFTLON K.K.). In accordance with the following equation, a decreased rate of blood pressure (%) was calculated from the blood pressure values before and after the administration of the compound. [formula]

`O=C(O)c1csc(=NC(=O)C2CC2)n1Cc1ccc(-c2ccccc2-c2nnn[nH]2)cc1` [Compound No.242, 2-Cyclopropylcarbonylimino-3-[2'-(1H-tetrazol-5-yl)biphenyl-4-yl]methylthiazoline-4-carboxylic acid]: in the assay on renal hypertensive rats [1], the “Maximum action (%)” value is 29.5%. Moreover, the IC50 in assay [2] was 13 nM.

As for `CCc1nn(Cc2ccc(-c3ccccc3-c3nn[nH]n3)cc2)c(=NC(=O)C2CCCCC2C(=O)O)s1` (racemic) [Compound No.158, cis-2-[[5-Ethyl-3-[2'-(1H-tetrazol-5-yl)biphenyl-4-yl]methyl-1,3,4-thiadiazoline-2-yliden]aminocarbonyl] cyclohxanecarboxylic acid], in the assay on renal hypertensive rats [1], the “Maximum action (%)” value was found to be 38.4%. In addition, in assay [3], the IC50 was determined as 0.51 nM.

In the case of `CCCc1nn(Cc2ccc(-c3ccccc3-c3nnn[nH]3)cc2)c(=NC(=O)C2CC2)s1` [Compound No.21, 2-Cyclopropylcarbonylimino-5-n-propyl-3-[2'-(1H-tetrazol-5-yl)biphenyl-4-yl]methyl-1,3,4-thiadiazoline], the IC50 in assay [3] was determined as 8 nM. In addition, the “Maximum action (%)” value with renal hypertensive rats [4] is reported as 26.3%.

With `Cc1nn(Cc2ccc(-c3ccccc3-c3nnn[nH]3)cc2)c(=NC(=O)C2CC2)s1` [Compound No.17, 2-Cyclopropylcarbonylimino-5-methyl-3-[2'-(1H-tetrazol-5-yl)biphenyl-4-yl]methyl-1,3,4-thiadiazoline], the IC50 in assay [3] worked out at 7.5 nM. The “Maximum action (%)” value in the assay on renal hypertensive rats [4] is on record as 25.9%.

`CCc1nn(Cc2ccc(-c3ccccc3-c3nnn[nH]3)cc2)c(=NC(=O)C2=C(C(=O)O)CCC2)s1` [Compound No.130, 2-[[5-Ethyl-3-[2'-(1H-tetrazol-5-yl)biphenyl-4-yl]methyl-1,3,4-thiadiazoline-2-yliden]aminocarbonyl]-1-cyclopenten carboxylic acid]: the “Maximum action (%)” value in the assay with renal hypertensive rats [1] was found to be 41.2%. Also, the IC50 in assay [3] is 0.65 nM.

As to `CCc1nn(Cc2ccc(-c3ccccc3-c3nnn[nH]3)cc2)c(=NC(=O)c2ccccc2C(=O)O)s1` [Compound No.126, N-[5-Ethyl-3-[2'-(1H-tetrazol-5-yl)biphenyl-4-yl]methyl-1,3,4-thiadiazoline-2-yliden]phthalamic acid], in the assay with renal hypertensive rats [1], the “Maximum action (%)” value stood at 27.6%. Further, in assay [2], the IC50 was 32 nM.
